Data reported in paper PMC3281204 (2011).

System: Modified anti-cocaine aptamer (DNA, aptamer) ATCTCGGGAGACAAGGATAAATCCTTCAATGAAGTGGGTCTCCC
Experiment: fluorescence dequenching
Details: apparent; displaced strand 5'-[…]-3'-dabcyl quencher oligo; cocaine 0-5 mM

COC(=O)[C@H]1[C@@H](OC(=O)c2ccccc2)C[C@@H]2CC[C@H]1N2C
K D: 134.4 ± 7.2 µM
